Results as given in patent US20240228504A1, “SUBSTITUTED TRICYCLIC AMIDES, ANALOGUES THEREOF, AND METHODS USING SAME” (Arbutus Biopharma Corporation, priority 2020, published 2024).

The molecules below were run on HBV rcDNA in HepDE19 cells (assay: HepDE19 assay with bDNA quantitation of HBV rcDNA). Settings: HepDE19 assay, inhibition of rcDNA formation, bDNA quantitation; read-out: DE-19bDNA EC50.
Assay type: cell-based, hepatitis B virus

Structure (SMILES)	EC50
CN(C(=O)c1cc2cc(F)c(F)cc2[nH]1)C1CNCc2[nH]c(=O)c3cc(F)c(F)cc3c21 (single isomer, unassigned) [Compound 115, N-(8,9-Difluoro-6-oxo-1,2,3,4,5,6-hexahydrobenzo[c][1,7]naphthyridin-1-yl)-5,6-difluoro-N-methyl-1H-indole-2-carboxamide]	0.02 µM
CN(C(=O)c1cc2ccccn2c1)C1COCc2[nH]c(=O)c3cc(F)c(F)cc3c21 (single isomer, unassigned) [Compound 12, N-(8,9-Difluoro-6-oxo-1,4,5,6-tetrahydro-2H-pyrano[3,4-c]isoquinolin-1-yl)-N-methylindolizine-2-carboxamide]	0.01 µM
CN(C(=O)c1ccc2cccn2c1)C1COCc2[nH]c(=O)c3cc(F)ccc3c21 (single isomer, unassigned) [Compound 390, N-(8-Fluoro-6-oxo-1,4,5,6-tetrahydro-2H-pyrano[3,4-c]isoquinolin-1-yl)-N-methylindolizine-6-carboxamide]	0.07 µM
CN(C(=O)c1cc2sccc2[nH]1)C1COCc2[nH]c(=O)c3cc(F)ccc3c21 (single isomer, unassigned) [Compound 380, N-(8-Fluoro-6-oxo-1,4,5,6-tetrahydro-2H-pyrano[3,4-c]isoquinolin-1-yl)-N-methyl-4H-thieno[3,2-b]pyrrole-5-carboxamide]	0.88 µM
CN(C(=O)c1cc2c(C#N)cc(F)cc2[nH]1)C1CNCc2[nH]c(=O)c3cc(F)c(F)cc3c21 (single isomer, unassigned) [Compound 400, 4-Cyano-N-(8,9-difluoro-6-oxo-1,2,3,4,5,6-hexahydrobenzo[c][1,7]naphthyridin-1-yl)-6-fluoro-N-methyl-1H-indole-2-carboxamide]	0.09 µM
CN(C(=O)c1cc(F)c(Br)c(F)c1)C1COCc2[nH]c(=O)c3cc(F)ccc3c21 (single isomer, unassigned) [Compound 166, 4-Bromo-3,5-difluoro-N-(8-fluoro-6-oxo-2,4,5,6-tetrahydro-1H-pyrano[3,4-c]isoquinolin-1-yl)-N-methylbenzamide]	1.91 µM
CN(C(=O)c1cc2c(C(F)F)cccc2[nH]1)C1CNCc2[nH]c(=O)c3cc(F)c(F)cc3c21 (single isomer, unassigned) [Compound 207, N-(8,9-Difluoro-6-oxo-1,2,3,4,5,6-hexahydrobenzo[c][1,7]naphthyridin-1-yl)-4-(difluoromethyl)-N-methyl-1H-indole-2-carboxamide]	5.6 µM
CN(C(=O)c1cc2c(F)c(F)ccc2[nH]1)C1COCc2[nH]c(=O)c3cc(F)ccc3c21 (single isomer, unassigned) [Compound 37, 4,5-Difluoro-N-(8-fluoro-6-oxo-1,4,5,6-tetrahydro-2H-pyrano[3,4-c]isoquinolin-1-yl)-N-methyl-1H-indole-2-carboxamide]	0.7 µM
CC(=O)N1Cc2[nH]c(=O)c3cc(F)ccc3c2C(N(C)C(=O)c2cc3ccccc3[nH]2)C1 (single isomer, unassigned) [Compound 68, N-(3-Acetyl-8-fluoro-6-oxo-1,2,3,4,5,6-hexahydrobenzo[c][1,7]naphthyridin-1-yl)-N-methyl-1H-indole-2-carboxamide]	5.5 µM
CN(C(=O)c1cc2cc(F)c(F)cc2[nH]1)C1COCc2[nH]c(=O)c3cc(F)ccc3c21 (single isomer, unassigned) [Compound 50, 5,6-Difluoro-N-(8-fluoro-6-oxo-1,4,5,6-tetrahydro-2H-pyrano[3,4-c]isoquinolin-1-yl)-N-methyl-1H-indole-2-carboxamide]	0.01 µM
CCc1cc(F)cc2[nH]c(C(=O)N(C)C3CNCc4[nH]c(=O)c5cc(F)c(F)cc5c43)cc12 (single isomer, unassigned) [Compound 402, N-(8,9-Difluoro-6-oxo-1,2,3,4,5,6-hexahydrobenzo[c][1,7]naphthyridin-1-yl)-4-ethyl-6-fluoro-N-methyl-1H-indole-2-carboxamide]	0.02 µM
CN(C(=O)c1cc2ccc(F)cc2[nH]1)C1CNCc2[nH]c(=O)c3cc(F)c(F)cc3c21 (single isomer, unassigned) [Compound 107, N-(8,9-Difluoro-6-oxo-1,2,3,4,5,6-hexahydrobenzo[c][1,7]naphthyridin-1-yl)-6-fluoro-N-methyl-1H-indole-2-carboxamide]	0.02 µM
CN(C(=O)c1cc2sc(F)cc2[nH]1)C1COCc2[nH]c(=O)c3cc(F)ccc3c21 (single isomer, unassigned) [Compound 497, 2-fluoro-N-(8-fluoro-6-oxo-1,4,5,6-tetrahydro-2H-pyrano[3,4-c]isoquinolin-1-yl)-N-methyl-4H-thieno[3,2-b]pyrrole-5-carboxamide]	1.2 µM
CN(C(=O)C1Cc2cc(F)ccc2N1)C1COCc2[nH]c(=O)c3cc(F)c(F)cc3c21 (single isomer, unassigned) [Compound 6, N-(8,9-Difluoro-6-oxo-1,4,5,6-tetrahydro-2H-pyrano[3,4-c]isoquinolin-1-yl)-5-fluoro-N-methylindoline-2-carboxamide]	9.6 µM
CN(C(=O)c1cc2c(Cl)cccc2[nH]1)C1CNCc2[nH]c(=O)c3cc(F)c(F)cc3c21 (single isomer, unassigned) [Compound 440, 4-Chloro-N-(8,9-difluoro-6-oxo-1,2,3,4,5,6-hexahydrobenzo[c][1,7]naphthyridin-1-yl)-N-methyl-1H-indole-2-carboxamide]	2.2 µM

Same assay, conditions: Hepatitis B virus, HepDE19, HepDE19 assay, inhibition of rcDNA formation, bDNA quantitation; read-out: DE-19bDNA EC50

Structure (SMILES)	EC50
CN(C(=O)c1cc2cc(OC(F)(F)F)ccc2[nH]1)[C@@H]1COCc2[nH]c(=O)c3cc(F)c(F)cc3c21 [Compound 327, (S)-N-(8,9-Difluoro-6-oxo-1,4,5,6-tetrahydro-2H-pyrano[3,4-c]isoquinolin-1-yl)-N-methyl-5-(trifluoromethoxy)-1H-indole-2-carboxamide]	1.2 µM
O=C(N[C@@H]1COCc2[nH]c(=O)c3cc(F)c(F)cc3c21)c1ccc(C(F)(F)F)c(F)c1 [Compound 158, (S)-N-(8,9-Difluoro-6-oxo-1,4,5,6-tetrahydro-2H-pyrano[3,4-c]isoquinolin-1-yl)-3-fluoro-4-(trifluoromethyl)benzamide]	0.58 µM
CN(C(=O)c1cc2c(Cl)nc(Cl)cc2[nH]1)[C@@H]1COCc2[nH]c(=O)c3cc(F)c(F)cc3c21 [Compound 410, (S)-4,6-Dichloro-N-(8,9-difluoro-6-oxo-1,4,5,6-tetrahydro-2H-pyrano[3,4-c]isoquinolin-1-yl)-N-methyl-1H-pyrrolo[3,2-c]pyridine-2-carboxamide]	0.04 µM
CN(C(=O)c1csc(Br)c1)[C@@H]1COCc2[nH]c(=O)c3cc(F)c(F)cc3c21 [Compound 194, (S)-5-Bromo-N-(8,9-difluoro-6-oxo-1,4,5,6-tetrahydro-2H-pyrano[3,4-c]isoquinolin-1-yl)-N-methylthiophene-3-carboxamide]	0.07 µM
CN(C(=O)c1cc2sccc2[nH]1)[C@@H]1COCc2[nH]c(=O)c3cc(F)c(F)cc3c21 [Compound 278, (S)-N-(8,9-Difluoro-6-oxo-1,4,5,6-tetrahydro-2H-pyrano[3,4-c]isoquinolin-1-yl)-N-methyl-4H-thieno[3,2-b]pyrrole-5-carboxamide]	0.02 µM
CN(C(=O)[C@@H]1Cc2ccccc2N1)C1COCc2[nH]c(=O)c3cc(F)ccc3c21 (single isomer, unassigned) [Compound 4]	0.13 µM
CN(C(=O)c1nc2ccccc2s1)[C@@H]1COCc2[nH]c(=O)c3cc(F)c(F)cc3c21 [Compound 123, (S)-N-(8,9-Difluoro-6-oxo-1,4,5,6-tetrahydro-2H-pyrano[3,4-c]isoquinolin-1-yl)-N-methylbenzo[d]thiazole-2-carboxamide]	1.5 µM
CN(C(=O)c1ccc(-c2cc(F)cc(F)c2)c(F)c1)[C@@H]1COCc2[nH]c(=O)c3cc(F)c(F)cc3c21 [Compound 287, (S)-N-(8,9-Difluoro-6-oxo-1,4,5,6-tetrahydro-2H-pyrano[3,4-c]isoquinolin-1-yl)-2,3′,5′-trifluoro-N-methyl-[1,1′-biphenyl]-4-carboxamide]	12.7 µM
[2H][C@@]1(N(C(=O)c2cc3cc(F)c(C(F)F)cc3[nH]2)[13C]([2H])([2H])[2H])COCc2[nH]c(=O)c3cc(F)c(F)cc3c21 [Compound 515, (S)-N-(8,9-Difluoro-6-oxo-1,4,5,6-tetrahydro-2H-pyrano[3,4-c]isoquinolin-1-yl-1-d)-6-(difluoromethyl)-5-fluoro-N-(methyl-^13C-d3)-1H-indole-2-carboxamide]	0.01 µM
CN(C(=O)c1cc2cc(S(C)(=O)=O)ccc2[nH]1)C1CNCc2[nH]c(=O)c3cc(F)c(F)cc3c21 (single isomer, unassigned) [Compound 403, N-(8,9-Difluoro-6-oxo-1,2,3,4,5,6-hexahydrobenzo[c][1,7]naphthyridin-1-yl)-N-methyl-5-(methylsulfonyl)-1H-indole-2-carboxamide]	25 µM
CN(Cc1cc2cc(F)c(F)cc2[nH]1)[C@@H]1COCc2[nH]c(=O)c3cc(F)c(F)cc3c21 [Compound 494, (S)-1-(((5,6-difluoro-1H-indol-2-yl)methyl)(methyl)amino)-8,9-difluoro-1,5-dihydro-2H-pyrano[3,4-c]isoquinolin-6(4H)-one]	1.5 µM
CN(C(=O)c1cccc(S(C)(=O)=O)c1)[C@@H]1COCc2[nH]c(=O)c3cc(F)c(F)cc3c21 [Compound 298, (S)-N-(8,9-Difluoro-6-oxo-1,4,5,6-tetrahydro-2H-pyrano[3,4-c]isoquinolin-1-yl)-N-methyl-3-(methylsulfonyl)benzamide]	9 µM
CN(C(=O)C(F)(F)c1ccccc1)[C@@H]1COCc2[nH]c(=O)c3cc(F)c(F)cc3c21 [Compound 512, (S)-N-(8,9-Difluoro-6-oxo-1,4,5,6-tetrahydro-2H-pyrano[3,4-c]isoquinolin-1-yl)-2,2-difluoro-N-methyl-2-phenylacetamide]	25 µM

Same assay, conditions: Hepatitis B virus, HepDE19, read-out: DE-19bDNA EC50 (μM)

Structure (SMILES)	EC50
CN(C(=O)c1ccc(Cl)cc1)[C@@H]1COCc2[nH]c(=O)c3cc(F)c(F)cc3c21 [Compound 99, (S)-4-Chloro-N-(8,9-difluoro-6-oxo-1,4,5,6-tetrahydro-2H-pyrano[3,4-c]isoquinolin-1-yl)-N-methylbenzamide]	0.02 µM
